Test results as given in the NIST ThermoML archive (doi:10.1021/je4003916).

Assays:
[1] = xn = mol fraction of the nth substance listed; conditions: 101 kPa, Liquid, x2 = 0; for mass density: Vibrating tube method
[2] = 293.15 K; 101.33 kPa; Liquid; Vibrating tube method
[3] = refractive index (Na D-line) (dimensionless); xn = mol fraction of the nth substance listed; conditions: 101 kPa, Liquid, Dipping refractometry (monochromatic), x2 = 0

CCCCO [butan-1-ol] + COC(=O)CCCCC(=O)OC
[1], stabinger viscometer
Conditions	viscosity [mPa·s]
288.15 K	3.375
293.15 K	2.945
298.15 K	2.581
303.15 K	2.272
308.15 K	2.008
313.15 K	1.782
318.15 K	1.587
323.15 K	1.419

COC(=O)CCCCC(=O)OC [dimethyl 1,6-hexanedioate]
Conditions	mass density [kg/m3]
[2]	1061.93

CCCCO [butan-1-ol] + C1CCOC1
Conditions	mass density, [1] [kg/m3]	refractive index, [3]	viscosity, [1] [mPa·s]
288.15 K	813.37	1.4014	3.375
293.15 K	809.57	1.3993	2.945
298.15 K	805.76	1.3973	2.581
303.15 K	801.92	1.3952	2.272
308.15 K	798.05	1.3932	2.008
313.15 K	794.15	1.3911	1.782
318.15 K	790.23	1.389	1.587
323.15 K	786.24	1.3869	1.419
